Assay results published in the NIST ThermoML archive (doi:10.1021/je050374d).

Assay: xn = mol fraction of the nth substance listed
Settings: Liquid

C=C [ethene] + CO
Settings	mass density [kg/m3]
278.15 K, x1 = 0.147	742.3
278.15 K, x1 = 0.189	722.2
278.15 K, x1 = 0.295	675.3
278.15 K, x1 = 0.373	644.9
278.15 K, x1 = 0.989	322
283.65 K, x1 = 0.14	741.3
283.65 K, x1 = 0.221	706
283.65 K, x1 = 0.325	657.5
283.65 K, x1 = 0.432	610.9
283.65 K, x1 = 0.475	589.1
283.65 K, x1 = 0.984	258.5
